Measurements reported in the supplement of paper PMC10307832.

Legend:
Test in all cases: relative viability (nuclei count vs DMSO), 5 days (fraction); higher = more cells survive
[1] = compound: CS(=O)(=O)N1CCN(Cc2cc3nc(-c4cccc5[nH]ncc45)nc(N4CCOCC4)c3s2)CC1 [Pictilisib] + CC(=O)Nc1cccc(-n2c(=O)n(C3CC3)c(=O)c3c(Nc4ccc(I)cc4F)n(C)c(=O)c(C)c32)c1 [Trametinib] (partner 0.02 µM)
How it was run: (§1)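 Relative viability is defined as nuclei in treated wells over nuclei in vehicle wells. Duplicate plates were run and medians reported. Lung cancer cell lines in 1536-well plates were dosed by pin tool one day after seeding, with one drug or with a fixed anchor-drug dose plus five library-drug doses (not always all listed) in √10 steps, and nuclei were counted after 5 days.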

[2] = compound: NC1(c2ccc(-c3nc4ccn5c(=O)[nH]nc5c4cc3-c3ccccc3)cc2)CCC1 [MK-2206] + CS(=O)(=O)N1CCN(Cc2cc3nc(-c4cccc5[nH]ncc45)nc(N4CCOCC4)c3s2)CC1 [Pictilisib] (partner 1 µM)
How it was run: as §1

[3] = compound: NC1(c2ccc(-c3nc4ccn5c(=O)[nH]nc5c4cc3-c3ccccc3)cc2)CCC1 [MK-2206] + CC(=O)c1c(C)c2cnc(Nc3ccc(N4CCNCC4)cn3)nc2n(C2CCCC2)c1=O [Palbociclib] (partner 0.5 µM)
How it was run: as §1

[4] = compound: NC1(c2ccc(-c3nc4ccn5c(=O)[nH]nc5c4cc3-c3ccccc3)cc2)CCC1 [MK-2206] + CC(C)C[C@H](NC(=O)[C@H](Cc1ccccc1)NC(=O)c1cnccn1)B(O)O [Bortezomib] (partner 0.002 µM)
How it was run: as §1

[5] = compound: CS(=O)(=O)N1CCN(Cc2cc3nc(-c4cccc5[nH]ncc45)nc(N4CCOCC4)c3s2)CC1 [Pictilisib] + Nc1nc2[nH]cc(CCc3ccc(C(=O)N[C@@H](CCC(=O)O)C(=O)O)cc3)c2c(=O)[nH]1 [Pemetrexed] (partner 0.2 µM)
How it was run: as §1

NCI-H2126
relative viability ([1]; first compound 0.02 µM): 0.532
relative viability ([1]; first compound 0.06325 µM): 0.531
relative viability ([1]; first compound 0.6325 µM): 0.378
relative viability ([1]; first compound 2 µM): 0.278
relative viability ([2]; first compound 0.01 µM): 0.522
relative viability ([2]; first compound 0.03162 µM): 0.47
relative viability ([2]; first compound 0.3162 µM): 0.491
relative viability ([2]; first compound 1 µM): 0.468
relative viability ([3]; first compound 0.01 µM): 0.372
relative viability ([3]; first compound 0.03162 µM): 0.358
relative viability ([3]; first compound 0.3162 µM): 0.357
relative viability ([3]; first compound 1 µM): 0.335
relative viability ([4]; first compound 0.01 µM): 1.09
relative viability ([4]; first compound 0.03162 µM): 1.11
relative viability ([4]; first compound 0.3162 µM): 1.07
relative viability ([4]; first compound 1 µM): 1.06
relative viability ([5]; first compound 0.02 µM): 0.692
relative viability ([5]; first compound 0.06325 µM): 0.661
relative viability ([5]; first compound 0.6325 µM): 0.518
relative viability ([5]; first compound 2 µM): 0.379

NCI-H2228
relative viability ([1]; first compound 0.02 µM): 0.391
relative viability ([1]; first compound 0.06325 µM): 0.519
relative viability ([1]; first compound 0.6325 µM): 0.199
relative viability ([1]; first compound 2 µM): 0.148
relative viability ([2]; first compound 0.01 µM): 0.356
relative viability ([2]; first compound 0.03162 µM): 0.455
relative viability ([2]; first compound 0.3162 µM): 0.198
relative viability ([2]; first compound 1 µM): 0.297
relative viability ([3]; first compound 0.01 µM): 0.586
relative viability ([3]; first compound 0.03162 µM): 0.848
relative viability ([3]; first compound 0.3162 µM): 0.487
relative viability ([3]; first compound 1 µM): 0.725
relative viability ([4]; first compound 0.01 µM): 0.973
relative viability ([4]; first compound 0.03162 µM): 1.04
relative viability ([4]; first compound 0.3162 µM): 0.643
relative viability ([4]; first compound 1 µM): 0.413
relative viability ([5]; first compound 0.02 µM): 0.316
relative viability ([5]; first compound 0.06325 µM): 0.252
relative viability ([5]; first compound 0.6325 µM): 0.334
relative viability ([5]; first compound 2 µM): 0.119

NCI-H2347
relative viability ([1]; first compound 0.02 µM): 0.271
relative viability ([1]; first compound 0.06325 µM): 0.269
relative viability ([1]; first compound 0.6325 µM): 0.25
relative viability ([1]; first compound 2 µM): 0.24
relative viability ([2]; first compound 0.01 µM): 0.384
relative viability ([2]; first compound 0.03162 µM): 0.67
relative viability ([2]; first compound 0.3162 µM): 0.634
relative viability ([2]; first compound 1 µM): 0.652
relative viability ([3]; first compound 0.01 µM): 0.418
relative viability ([3]; first compound 0.03162 µM): 0.415
relative viability ([3]; first compound 0.3162 µM): 0.39
relative viability ([3]; first compound 1 µM): 0.3
relative viability ([4]; first compound 0.01 µM): 0.914
relative viability ([4]; first compound 0.03162 µM): 1.11
relative viability ([4]; first compound 0.3162 µM): 1.06
relative viability ([4]; first compound 1 µM): 0.92
relative viability ([5]; first compound 0.02 µM): 0.459
relative viability ([5]; first compound 0.06325 µM): 0.455
relative viability ([5]; first compound 0.6325 µM): 0.391
relative viability ([5]; first compound 2 µM): 0.367

NCI-H2405
relative viability ([1]; first compound 0.02 µM): 0.719
relative viability ([1]; first compound 0.06325 µM): 0.515
relative viability ([1]; first compound 0.6325 µM): 0.355
relative viability ([1]; first compound 2 µM): 0.254
relative viability ([2]; first compound 0.01 µM): 0.418
relative viability ([2]; first compound 0.03162 µM): 0.421
relative viability ([2]; first compound 0.3162 µM): 0.361
relative viability ([2]; first compound 1 µM): 0.282
relative viability ([3]; first compound 0.01 µM): 0.512
relative viability ([3]; first compound 0.03162 µM): 0.534
relative viability ([3]; first compound 0.3162 µM): 0.532
relative viability ([3]; first compound 1 µM): 0.481
relative viability ([4]; first compound 0.01 µM): 0.96
relative viability ([4]; first compound 0.03162 µM): 1.1
relative viability ([4]; first compound 0.3162 µM): 0.958
relative viability ([4]; first compound 1 µM): 0.987
relative viability ([5]; first compound 0.02 µM): 1.3
relative viability ([5]; first compound 0.06325 µM): 1.01
relative viability ([5]; first compound 0.6325 µM): 0.778
relative viability ([5]; first compound 2 µM): 0.416

NCI-H3122
relative viability ([1]; first compound 0.02 µM): 0.201
relative viability ([1]; first compound 0.06325 µM): 0.202
relative viability ([1]; first compound 0.6325 µM): 0.161
relative viability ([1]; first compound 2 µM): 0.122
relative viability ([2]; first compound 0.01 µM): 0.542
relative viability ([2]; first compound 0.03162 µM): 0.558
relative viability ([2]; first compound 0.3162 µM): 0.491
relative viability ([2]; first compound 1 µM): 0.434
relative viability ([3]; first compound 0.01 µM): 0.187
relative viability ([3]; first compound 0.03162 µM): 0.179
relative viability ([3]; first compound 0.3162 µM): 0.201
relative viability ([3]; first compound 1 µM): 0.193
relative viability ([4]; first compound 0.01 µM): 1.03
relative viability ([4]; first compound 0.03162 µM): 0.942
relative viability ([4]; first compound 0.3162 µM): 1.09
relative viability ([4]; first compound 1 µM): 0.973
relative viability ([5]; first compound 0.02 µM): 0.189
relative viability ([5]; first compound 0.06325 µM): 0.196
relative viability ([5]; first compound 0.6325 µM): 0.192
relative viability ([5]; first compound 2 µM): 0.172

PC-3 [JPC-3]
relative viability ([1]; first compound 0.02 µM): 0.727
relative viability ([1]; first compound 0.06325 µM): 0.658
relative viability ([1]; first compound 0.6325 µM): 0.586
relative viability ([1]; first compound 2 µM): 0.433
relative viability ([2]; first compound 0.01 µM): 0.774
relative viability ([2]; first compound 0.03162 µM): 0.874
relative viability ([2]; first compound 0.3162 µM): 0.776
relative viability ([2]; first compound 1 µM): 0.676
relative viability ([3]; first compound 0.01 µM): 0.5
relative viability ([3]; first compound 0.03162 µM): 0.509
relative viability ([3]; first compound 0.3162 µM): 0.535
relative viability ([3]; first compound 1 µM): 0.519
relative viability ([4]; first compound 0.01 µM): 0.812
relative viability ([4]; first compound 0.03162 µM): 0.94
relative viability ([4]; first compound 0.3162 µM): 0.841
relative viability ([4]; first compound 1 µM): 0.805
relative viability ([5]; first compound 0.02 µM): 1.22
relative viability ([5]; first compound 0.06325 µM): 1.24
relative viability ([5]; first compound 0.6325 µM): 0.872
relative viability ([5]; first compound 2 µM): 0.579

PC-14
relative viability ([1]; first compound 0.02 µM): 0.749
relative viability ([1]; first compound 0.06325 µM): 0.761
relative viability ([1]; first compound 0.6325 µM): 0.537
relative viability ([1]; first compound 2 µM): 0.196
relative viability ([2]; first compound 0.01 µM): 0.635
relative viability ([2]; first compound 0.03162 µM): 0.627
relative viability ([2]; first compound 0.3162 µM): 0.648
relative viability ([2]; first compound 1 µM): 0.514
relative viability ([3]; first compound 0.01 µM): 0.512
relative viability ([3]; first compound 0.03162 µM): 0.481
relative viability ([3]; first compound 0.3162 µM): 0.589
relative viability ([3]; first compound 1 µM): 0.474
relative viability ([4]; first compound 0.01 µM): 0.732
relative viability ([4]; first compound 0.03162 µM): 0.858
relative viability ([4]; first compound 0.3162 µM): 0.811
relative viability ([4]; first compound 1 µM): 0.851
relative viability ([5]; first compound 0.02 µM): 0.137
relative viability ([5]; first compound 0.06325 µM): 0.133
relative viability ([5]; first compound 0.6325 µM): 0.136
relative viability ([5]; first compound 2 µM): 0.0862

RERF-LC-KJ
relative viability ([1]; first compound 0.02 µM): 0.828
relative viability ([1]; first compound 0.06325 µM): 0.859
relative viability ([1]; first compound 0.6325 µM): 0.708
relative viability ([1]; first compound 2 µM): 0.56
relative viability ([2]; first compound 0.01 µM): 0.586
relative viability ([2]; first compound 0.03162 µM): 0.481
relative viability ([2]; first compound 0.3162 µM): 0.553
relative viability ([2]; first compound 1 µM): 0.445
relative viability ([3]; first compound 0.01 µM): 0.954
relative viability ([3]; first compound 0.03162 µM): 1.13
relative viability ([3]; first compound 0.3162 µM): 1
relative viability ([3]; first compound 1 µM): 1.06
relative viability ([4]; first compound 0.01 µM): 1.06
relative viability ([4]; first compound 0.03162 µM): 1.12
relative viability ([4]; first compound 0.3162 µM): 0.876
relative viability ([4]; first compound 1 µM): 1.02
relative viability ([5]; first compound 0.02 µM): 0.459
relative viability ([5]; first compound 0.06325 µM): 0.478
relative viability ([5]; first compound 0.6325 µM): 0.448
relative viability ([5]; first compound 2 µM): 0.404

SK-LU-1
relative viability ([1]; first compound 0.02 µM): 0.459
relative viability ([1]; first compound 0.06325 µM): 0.47
relative viability ([1]; first compound 0.6325 µM): 0.355
relative viability ([1]; first compound 2 µM): 0.32
relative viability ([2]; first compound 0.01 µM): 0.584
relative viability ([2]; first compound 0.03162 µM): 0.478
relative viability ([2]; first compound 0.3162 µM): 0.535
relative viability ([2]; first compound 1 µM): 0.474
relative viability ([3]; first compound 0.01 µM): 0.431
relative viability ([3]; first compound 0.03162 µM): 0.433
relative viability ([3]; first compound 0.3162 µM): 0.375
relative viability ([3]; first compound 1 µM): 0.353
relative viability ([4]; first compound 0.01 µM): 1.28
relative viability ([4]; first compound 0.03162 µM): 1.22
relative viability ([4]; first compound 0.3162 µM): 1.01
relative viability ([4]; first compound 1 µM): 0.747
relative viability ([5]; first compound 0.02 µM): 0.967
relative viability ([5]; first compound 0.06325 µM): 1.07
relative viability ([5]; first compound 0.6325 µM): 0.835
relative viability ([5]; first compound 2 µM): 0.624

SW 1573
relative viability ([1]; first compound 0.02 µM): 0.563
relative viability ([1]; first compound 0.06325 µM): 0.473
relative viability ([1]; first compound 0.6325 µM): 0.379
relative viability ([1]; first compound 2 µM): 0.239
relative viability ([2]; first compound 0.01 µM): 0.453
relative viability ([2]; first compound 0.03162 µM): 0.548
relative viability ([2]; first compound 0.3162 µM): 0.424
relative viability ([2]; first compound 1 µM): 0.457
relative viability ([3]; first compound 0.01 µM): 0.571
relative viability ([3]; first compound 0.03162 µM): 0.335
relative viability ([3]; first compound 0.3162 µM): 0.294
relative viability ([3]; first compound 1 µM): 0.298
relative viability ([4]; first compound 0.01 µM): 0.948
relative viability ([4]; first compound 0.03162 µM): 1.04
relative viability ([4]; first compound 0.3162 µM): 0.834
relative viability ([4]; first compound 1 µM): 0.629
relative viability ([5]; first compound 0.02 µM): 0.845
relative viability ([5]; first compound 0.06325 µM): 0.91
relative viability ([5]; first compound 0.6325 µM): 0.52
relative viability ([5]; first compound 2 µM): 0.424
